Patent US20260364186A1, “Chemical Conjugates, Compositions, and Methods of Preparation and Use Thereof” (Transfection Holdings Limited, priority 2022, published 2026)
Entries after “also recorded” stand apart in the source; their conditions may differ.

Key:
Format in all cases: cell-based, human
[1] = system: NZM11 (BRAF V600E) melanoma cells; experiment: Time course of uptake by FACS (Example 5); details: 200 nM; for uptake / intensities, in words: NZM11, time course
Protocol: FIG. 5A: Time course of uptake for 124, 125, 131, 132 conjugate compounds. Tests were performed using 200 nM each conjugate and 5, 30, or 60 minute incubation with melanoma cell line NZM11 (BRAF V600E mutant metastatic melanoma). Mean fluorescent intensities (MFI), n=300 mean±SD. The cells were sorted by FACS.
FIG. 5B: Time course of uptake for 124 and 3-azido BODIPY FL. Tests were performed using 200 nM each compound and 1 or 3 hour incubation with melanoma cell line NZM11 (BRAF V600E mutant metastatic melanoma). Mean fluorescent intensities (MFI). n=2000-3000 mean±SD. The cells were sorted by FACS.
Materials and methods: NZM11 cells were suspended at […] dispensed into 96 well plates and left to settle for 48 hours. 10 μL of 10 mM stock solutions in DMSO from the conjugates coupled to BODIPY were diluted with HBSS to afford 400 nM solution. Then, 400 nM compounds and DMSO solutions were diluted 1:1 with MEMα media to afford 200 nM solutions. After 48 hours the media was removed from the 96 well plates and 200 μL of 200 nM conjugates solutions dispensed to each well (in duplicate) and incubated for 5 minutes, 30 minutes and 60 minutes at 37 °C (for the first test) or 60 minutes and 3 hours (for the second test). After indicated incubation time, the media was removed and cells washed with PBS. 100 μL of TrypLE trypsin (ThermoFisher Scientific) were added to each well and incubated for 6.5 minutes at 37 °C after which, 100 μL of MEMα media were added and samples were sorted through FACS biosort. FACS results output represented the mean of the fluorescence intensities (in arbitrary units) measured for cells sorted in every sample. Uptake rate was calculated by the equation: Uptake rate=(MFI2−MFI1)/(T2−T1)
whereby: MFI=mean fluorescent intensities; T=time (at which time the sample was taken); Uptake rate units: fluorescence intensities units per minute.

Jurkat cells = experiment: FACS uptake of BODIPY FL conjugates in Jurkat cells (Example 3); details: 200 nM
Protocol: FIG. 3B: Conjugate compounds coupled to BODIPY FL were tested for uptake using 200 nM each conjugate and 5 minute incubation with immortalized T lymphocyte cell line, Jurkat cells. Mean fluorescent intensities (MFI). 1,000 cells sorted by FACS. Bars represent mean±SD. Results represent a single experiment done in duplicate.
Materials and methods: Jurkat cells have been previously shown to be defective in the expression of two lipid phosphatases, PTEN (phosphatase and tensin homologue) and SHIP (SH2-domain-containing inositol polyphosphate 5′ phosphatase). The biological implications of SHIP deficiency in T cells remain under evaluation, but the loss of PTEN leads to activation of the phosphatidylinositol 3-kinase (PI3K)-signalling pathway. See Abraham and Weiss, 2004. This activation of PI3K protein is also on NZM40 melanoma cell line, and represents a key mutation for its sustained proliferation. See Silva et al., 2017. For these experiments, Jurkat cells were diluted on RPMI media (supplemented with 10% FBS+1% penicillin-streptomycin) to afford 400 cells/μL. 2 μL of 100 μM stock solutions in DMSO from 138 and pantothenic acid/pantothenic acid derivatives coupled to BODIPY were diluted with 998 μL of RPMI media (supplemented with 10% FBS+1% penicillin-streptomycin) to afford 200 nM solution. 100,000 cells were dispensed to Eppendorf tubes, centrifuged for 1.5 min at 5000 rcf and the supernatant was removed. The cells then were incubated with 500 μL of solutions at 200 nM for 4.5 min and 37 °C. After the incubation time, cells were centrifuged for 1.5 minutes at 5000 rcf. Supernatant was removed and cell pellet re-suspended in 200 μL fresh RPMI media, transferred to 96 well-plate and run on FACS machine, approximately 1,000 cells analysed.

[2] = system: NZM40 (NRAS Q16H) melanoma cells; experiment: FACS uptake of BODIPY FL conjugates, 200 nM, 5 min (Example 2)
Protocol: FIG. 2. Conjugate compounds coupled to BODIPY FL were tested for uptake using 200 nM each conjugate and 5 minute incubation with melanoma cell line NZM11 (BRAF V600E mutant metastatic melanoma), melanoma cell line NZM40 (NRAS Q16H mutant metastatic melanoma) and melanoma cell line NZM9 (BRAF and NRAS wildtype metastatic melanoma). Mean fluorescent intensities (MFI). 2,000 cells (NZM11), 1,000 cells (NZM40) and 500-1,000 cells (NZM9). Cells were sorted by FACS. Bars represent mean±SD. Results were from a single experiment done in triplicate.
NZM40 is an adherent cell line which was originally derived from a metastatic melanoma from a patient, in 2004. This human metastatic melanoma is identified with code CBA-1381 from Cell bank Australia. […] Ras is a superfamily of proteins implicated in cell growth, survival and differentiation. NRAS (neuroblastoma rat sarcoma) was the first oncogene recognized in melanoma and mutations in NRAS account for 20% of all melanomas. NRAS mutations primarily occur at position 61 and involve amino acid change from glutamine (Q) to arginine (R), lysine (K), leucine (L) or histidine (H). These mutations block NRAS into a GTP-bound state damaging its GTPase activity (FIG. 1). Patients are usually older (>55 years) with previous UV exposure. See Garcia-Alverez et al., 2021.
For screening, NZM11, NZM40 and NZM9 cells were suspended at […] dispensed into 96 well plates and left to settle for 48 hours. Then, 10 μL of 10 mM stock solutions in DMSO for the conjugates were diluted with HBSS to afford 400 nM solution. Next, 400 nM compounds and DMSO solutions were diluted 1:1 with MEMα media to afford 200 nM solutions. After 48 hours the media was removed from the 96 well plates and 200 μL of 200 nM conjugates solutions dispensed to each well (in triplicate) and incubated for 5 minutes at 37 °C. After 5 minutes, the media was removed and cells washed with PBS. Then, 100 μL of TrypLE trypsin (ThermoFisher Scientific) were added to each well and incubated for 5 minutes at 37 °C after which, 100 μL of MEMα media were added and samples were sorted through FACS biosort. The FACS results output were represented as the mean of the fluorescence intensities (in arbitrary units) measured for cells sorted in every sample.

CC1=CC(C)=[N+]2C1=Cc1ccc(CCCn3cc(CCNC(=O)/C=C/NC(=O)[C@H](O)C(C)(C)CO)nn3)n1[B-]2(F)F [Compound 124]
lower intensities at 3 hour than 60 minute incubation ([1]; NZM11): 4% | time after which uptake presents saturation ([1]; NZM11): 60 min | time at which highest intensities were reached ([1]; NZM11): 60 min | uptake / intensities, in words [1]: outstanding uptake; also recorded: rapid at the first minutes of incubation | uptake rate ([1]; after five minutes): 45 units per minute | uptake rate ([1]; at 30 minutes): 23 units per minute | uptake rate ([1]; at 60 minutes): 1 units per minute | uptake / targeting (Jurkat cells): highest uptake | intensities compared to 125 and 127 (Jurkat cells; vs 125 and 127): two times higher | higher fluorescence intensities compared to enantiomer 126 [2]: 13 times | uptake (fluorescence intensities) [2]: highest intensities; also recorded: best targeting activity

CC1=CC(C)=[N+]2C1=Cc1ccc(CCCn3cc(CCNC(=O)/C=C/NC(=O)[C@@H]4OC(C)(C)OCC4(C)C)nn3)n1[B-]2(F)F [Compound 125, (R,E)-N-((((3-[4,4-difluoro-5,7-dimethyl-4-bora-3a,4a-diaza-s-indacene-3-yl]propyl)-1H-1,2,3-triazol-4-yl)eth-ylamino)-3-oxoprop-1-enyl)-2,2,5,5-tetramethyl-1,3-dioxane-4-carboxamide]
time at which highest intensities were reached ([1]; NZM11): 60 min | times lower uptake rate, as compared to 124 ([1]; NZM11): 7 times | uptake / targeting (Jurkat cells): showed targeting | uptake (fluorescence intensities) [2]: selective uptake; also recorded: significant uptake

CC1=CC(C)=[N+]2C1=Cc1ccc(CCCn3cc(CCNC(=O)/C=C\NC(=O)[C@H]4OC(C)(C)OCC4(C)C)nn3)n1[B-]2(F)F [Compound 131, (Z)—N-((((3-[4,4-Difluoro-5,7-dimethyl-4-bora-3a,4a-diaza-s-indacene-3-yl]propyl)-1H-1,2,3-triazol-4-yl)ethylamino)-3-oxoprop-1-enyl)-2,2,5,5-tetramethyl-1,3-dioxane-4-carboxamide]
uptake / intensities, in words [1]: non-significant intensities | uptake / targeting (Jurkat cells): showed targeting | uptake (fluorescence intensities) [2]: showed selectivity
